{
  "source": "patent US20090215666A1",
  "about": "“VIVIT POLYPEPTIDES, THERAPEUTIC AGENT COMPRISING THE SAME, AND METHOD OF SCREENING FOR ANTI-CANCER AGENT” (Oncotherapy Science, Inc., priority 2005, published 2009)",
  "key": {"[1]": {"test_system": "PK-1 cells", "assay": "MTT cell-growth assay for evaluation of inhibitory peptides", "type": "cell-based, Human", "conditions": "FIG. 4"}, "[2]": {"test_system": "PK-1 cells", "assay": "Flow cytometric analysis of sub-G1 fraction (propidium iodide)", "type": "cell-based, Human", "conditions": "40 μM, 12 hr, FIG. 7", "procedure": "PK-1 cell was maintained as described before (RPMI with 10% FBS). The cells were incubated with or without negative control (40 μM as a final concentration) or C1958VIVIT (10, 20, and 40 μM) peptide for 12 hr. After the incubation, cells were detached by trypsin and collected to tubes and washed with PBS for 3 times. Then the cells were fixed with 67% ethanol for 30 min at room temperature (RT), washed with PBS once, and treated with RNase (2 mg/ml in PBS) for 30 min at RT. Finally the cell nuclei were stained with propidium iodide (PI) for 30 min at RT. Flow cytometric analysis was done with FACS calibur (BD)."}, "[3]": {"set-up": "species or system mice (BALB/cA Jcl-nu)", "conditions": "mouse, in vivo, 9 mg/kg/day", "procedure": "In vivo experiments were performed in our animal facility in accordance with institutional guidelines. A 0.1-ml aliquot of suspended PK-1 cells (5×10^6 cells) was injected subcutaneously into the flanks of six-week-old female athymic mice (BALB/cA Jcl-nu). Tumor volumes were determined using the formula: 0.52×(larger diameter)×(smaller diameter)×(depth). When the xenograft reached to 100 mm^3 in size, animals were randomly divided into two or three groups and received intratumoral or intravenous injection of 180 μg of 11R-C1958VIVIT, 11R-VEET, or PBS for 21 consecutive days. Tumor growth was assessed by calculating the ratio of tumor volume on the indicated day to the volume calculated on the initiation of treatment."}},
  "note": "Ends that are not written are not given here.",
  "data": [
    {"substance": "RRRRRRRRRRR-GGG-KHLDVPDIIITPPTPT [11R-C1958]", "values": [
      {"measurement": "inhibition of growth of the cells (MTT assay)", "setting": "[1]; peptide 25 μM", "value": "neither 11R—C1958 (25 μM) nor 11R-VEET (40 μM) peptides, significantly inhibited the growth of the cells"}
    ]},
    {"substance": "RRRRRRRRRRR-GGG-MAGPPHIVEETGPHVI (RRRRRRRRRRRGGGMAGPPHIVEETGPHVI; Artificially synthesized peptide for inhibition of the interaction of C1958 and PPP3CA as control) [11R-VEET, 10, reference compound]", "values": [
      {"measurement": "inhibition of growth of the cells (MTT assay)", "setting": "[1]; peptide 40 μM", "value": "neither 11R—C1958 (25 μM) nor 11R-VEET (40 μM) peptides, significantly inhibited the growth of the cells"},
      {"measurement": "sub-G1 fraction of the treated cells", "setting": "[2]", "value": "did not affect"}
    ]},
    {"substance": "RRRRRRRRRRRGGGKHLDVPVIVITPPTPT [11R-C1958VIVIT, RRRRRRRRRRR-GGG-KHLDVPVIVITPPTPT]", "values": [
      {"measurement": "apparent negative effects on mice conditions", "setting": "[3]", "value": "nor apparent negative effects on mice conditions were observed"}
    ]}
  ]
}
